These compounds were tested on Plasmodium falciparum (assay: GSK_TCMDC: Inhibition of Plasmodium falciparum 3D7 in whole erythrocytes, using parasite LDH activity as an index of growth.). Details: Plasmodium falciparum, 3D7.
Format: functional, organism-based

Structure (SMILES)	XC50 [nM]
O=c1c2ccccc2nc(/C=C/c2ccc([N+](=O)[O-])cc2)n1-c1ccccn1	382
COc1cc2c(cc1C(F)(F)F)N(C(=O)Nc1cc(Br)cc(-c3cccnc3)c1)CC2	864
CCN1CCC(N(Cc2ccc(-c3ccc(C(F)(F)F)cc3)cc2)C(=O)Cn2c(CCc3cccc(F)c3F)cc(=O)c3ccccc32)C1 (stereo unspecified)	1010
CN1CCC(N(Cc2ccc(-c3ccc(C(F)(F)F)cc3)cc2)C(=O)Cn2cc(Cc3cnn(C)c3)c(=O)nc2SCc2cccc(F)c2F)CC1	933
Cc1c(Cc2ccccc2Br)cnc2nc(N)nc(N)c12	4.62
O=C(/C=C/c1ccc(Cl)c(Cl)c1)NCCCCCN1CCC(NC(=O)Nc2ccc(Cl)c(C(F)(F)F)c2)CC1	650
CC(C)[C@H](NC(=O)c1ccc(O)c(-c2cccc(C(F)(F)F)c2)c1)C(=O)NCCN1CCCCC1	836
Cc1ccc(CNC(=O)[C@H](Cc2ccccc2)Nc2cc(C)nc(NCc3ccccc3C)n2)cc1	803
COc1cc2nccc(Nc3ccc(Oc4ccccc4)cc3)c2cc1OC	684
c1ccc(CNCc2cccc(-c3ccc(-c4nc5ccccc5[nH]4)s3)c2)cc1	818
Cc1cc(N2CCCN(CC3CCCCC3)CC2)nc(Nc2ccc(Br)cc2)n1	943
CN(C)/C(=N/C(=N)NCc1ccc(Cl)c(Cl)c1)NCCCCCCN/C(=N\C(=N)NCc1ccc(Cl)c(Cl)c1)N(C)C	304
Cc1noc(-c2ccc(N3CCC(C(=O)N4CCN(C(C)C)CC4)CC3)cc2)n1	1070
Cc1cnc(-c2ccc(NC(=O)N3CCc4cc5nccc(N6CCN7CCC[C@H]7C6)c5cc43)c3ccccc23)o1	858
CCN(CC)CCNc1c2ccc(Cl)cc2nc2ccc(OC)nc12	736
C[C@H](NC(=O)[C@H](Cc1ccccc1)NC(=O)OC(C)(C)C)C(=O)N[C@@H](CC1CCCCC1)C(O)CN (stereo partly specified)	733
CCCC(=O)Nc1ccc(OCCCN(Cc2ccccc2C(F)(F)F)c2ccc(C#N)c(C(F)(F)F)c2)cc1	926
CCN(CC)/C(=N/C(=N)NCc1ccc(Cl)cc1Cl)NCCCCCCN/C(=N\C(=N)NCc1ccc(Cl)cc1Cl)N(CC)CC	218
O=C(c1ccc(Cl)c(Cl)c1)N1CCc2c([nH]c3ccccc23)C1CN1CCCC1 (stereo unspecified)	825
Cc1cc(Nc2ccc(O)cc2)nc2cccc(O)c12	742
COc1ccc(CCNCCCCCCNCCc2ccc(Cl)c3ccccc23)cc1OC	580
Cc1cc(F)ccc1[C@H]1CNCCN1C(=O)N(C)C(C)(C)c1cc(C(F)(F)F)cc(C(F)(F)F)c1	594
Nc1nc(N)c2cc(NC(=O)c3ccc(Cl)c(Cl)c3)ccc2n1	146
SC(=Nc1ccc(Cl)c(Cl)c1)NN=Cc1ccccn1	768

Structure (SMILES)	XC50 [nM]
COc1ccc(CC(=O)NC(CCN2CCC3(CCc4ccccc43)CC2)c2ccc(Cl)c(Cl)c2)cc1 (stereo unspecified)	525
CCOc1ccc(C(C)NC(=O)Nc2ccccc2)cc1OCC (stereo unspecified)	901
CC1N=C(N)N=C(N)N1OCc1cccc2ccccc12 (stereo unspecified)	3.2
COc1ccc2ncc(Cl)c(CCN3CC[C@@H](CNCc4cc5c(cn4)OCS5)C3)c2n1	811
Cc1ccc(C)c(S(=O)(=O)NCC2CCN(Cc3ccc(O)cc3)CC2)c1	978
O=C(NC(NC(=S)Nc1ccc([N+](=O)[O-])cc1)C(Cl)(Cl)Cl)c1cccc(Cl)c1 (stereo unspecified)	731
COc1ccc(-n2ccnc2SCC(=O)Nc2cc(Cl)ccc2OC)c(OC)c1	734
CCOc1cc(C(=O)Nc2ccc3nc(N(CC)CC)cc(C)c3c2)cc(OCC)c1OCC	696
COc1ccc2c(c1)Nc1ccc(Cl)cc1C2N (stereo unspecified)	303
CC1(CCCCN2CC=C(c3c[nH]c4ccccc34)CC2)C(=O)Nc2ccccc21 (stereo unspecified)	138
CC(=O)N(Cc1nc(-c2cc(Cl)c(Cl)s2)cs1)c1c(C)cccc1C	333
COc1ccc(Cc2cnc(N)nc2N)cc1OCCCOc1ccccc1	911
O=C(Nc1cc(Cl)cc(Cl)c1)Nc1ccccc1C(=O)NC1CCCCC1	749
O=C(NCCCN1CCCC1=O)NCc1ccccc1	816
O=C(Nc1cccc(-c2nn3ccccc3c2-c2ccnc(Nc3ccccc3)n2)c1)c1c(F)cccc1F	715
CCCC(C)NC(=O)[C@H](Cc1ccccc1)NC(=O)c1ccc(O)c(-c2ccc(OC)cc2)c1 (stereo partly specified)	1240
O=C(/C=C/C=C/c1ccccc1)NC1CCC(CN2CCC(c3c[nH]c4ccccc34)CC2)CC1 (stereo unspecified)	868
CC(C)C[C@H](NC(=O)c1cc2ccccc2s1)C(=O)N[C@H]1CCN(Cc2ccc(I)c(OC3CCN(C)C3)c2)C1 (stereo partly specified)	920
COc1ccc2nccc([C@@H](O)CN3CCC(NCc4ccc(OC)c(NC=O)c4)CC3)c2c1	753
COc1nc2c(CCN3CCC(NCc4ccc5c(c4)NC(=O)CO5)CC3)c(Cl)cnc2cc1F	771
C=CCOC(=O)N1CCC(CNCc2ccc(-c3cccc(-c4nc5cccc(C)c5[nH]4)c3)cc2)C1 (stereo unspecified)	118
COCCNCc1nc(-c2ccc3c(Nc4ccc(F)c(O)c4)ccnc3c2)cs1	695
Cc1cc(=NN=Cc2ccccn2)c2cc(C(F)(F)F)ccc2[nH]1	621
CCN1CCN(CCCNc2ccnc3cc(Cl)ccc23)CC1	67

Structure (SMILES)	XC50 [nM]
CCOc1ccccc1CNc1nccc(NCc2ccc(Cl)cc2Cl)n1	1100
OCCN1CCN(c2nc(Nc3cccc(F)c3)c3cnn(-c4ccccc4)c3n2)CC1	828
CCN1CCN(CC(O)CNC(=O)Nc2ccc(Cl)cc2)CC1 (stereo unspecified)	150
CC1CN(c2cnn(Cc3ccc(NC(=O)Nc4cccc(C(F)(F)F)c4)cc3)c(=O)c2Cl)CC(C)N1 (stereo unspecified)	940
CCCCCN1CCCCC(NS(=O)(=O)c2ccc(C(=O)Nc3cccc(C(F)(F)F)c3)cc2)C1 (stereo unspecified)	750
CCCCNC(=N)Nc1ccc(OCCCOc2ccc(NC(=N)NCCCC)cc2)cc1	164
Cc1cccc(Cn2nc(-c3ccccc3)c(N3CCCCC3)cc2=O)c1	464
Cc1nnsc1C(=O)Nc1ccc(-c2cccc(-c3nc4cc(F)ccc4[nH]3)c2)cc1	766
CC[C@H]1CN2CC[C@H]1C[C@H]2[C@H](O)c1ccnc2ccc(O)cc12	643
COc1ccc2ccc(F)c(CCN3CCC(NCc4cc5c(cn4)OCCO5)CC3)c2n1	840
CC(C)OC(=O)c1cccnc1SCC(=O)Nc1ccc(C(F)(F)F)cc1Cl	400
CC(C)(C)c1ccc2[nH]c(-c3ccc(/C=C/C(=O)NC4CCN(Cc5ccccc5)CC4)cc3)nc2c1	589
CCNC(=O)c1cc(S(=O)(=O)N2CCN(c3ccccn3)CC2)cs1	866
O=C1COc2ccccc2N1C/C=C(\CN1CCC(c2ccccc2)CC1)c1cc(Cl)cc(Cl)c1	215
COc1ccc(-c2cccc(NC(=O)c3cccc(F)c3)c2)cc1CN1CCCN(C)CC1	603
O=C(N[C@@H](CC1CCCCC1)C(=O)NCc1cccc2ccccc12)c1ccc(O)c(-c2ccc(Cl)c(Cl)c2)c1	216
COCCN1CCC(N(CC2(O)CCN(c3ccc(C(F)(F)F)cc3)CC2)C(=O)Cn2c(SCc3cccc(F)c3F)cc(=O)c3ccccc32)CC1	807
CCc1cn2c3c(cc(C(=O)N[C@@H](Cc4ccccc4)[C@H](O)CNCC(C)C)cc13)N(C)S(=O)(=O)CC2	37.6
COc1cc(CNCCCNc2nc(=O)c3sccc3[nH]2)c2[nH]cc(Cl)c2c1	888
Cc1c(-c2ccccc2)ccc2[nH]cc(CC#N)c12	703
Nc1ncc(-c2ccc(F)cc2)cc1-c1nc2ccc(Cl)cc2[nH]1	753
Cc1ccc(CNC(=O)[C@H](Cc2ccccc2)Nc2cc(C)nc(NCCc3ccc(F)cc3)n2)cc1	980
O=C(C=Cc1ccc(Cl)c(Cl)c1)NCCCCCN1CCCC(CCCNC(=O)c2sc3ccccc3c2Cl)C1 (stereo unspecified)	1030
Cc1ccccc1CNc1noc(-c2sccc2Br)n1	380

Structure (SMILES)	XC50 [nM]
C(=NNc1nc2ccccc2[nH]1)c1ccccc1OCc1ccccc1	256
CCCN1CCN(CCNC(=O)c2cccc(Nc3nccc(Nc4ccc(Oc5ccccc5)cc4)n3)c2)CC1	239
NCc1ccc(-c2cccc(CNC3CCN(Cc4ccccc4)CC3)c2)cc1	672
CC(C)CNCc1ccc(-c2cccc(CN(CCCN3CCN(C)CC3)C(=O)/C=C/c3ccccc3)c2)cc1	872
CNCCNc1nccc(N2CCc3ncnc(Nc4ccc(OCc5cccc(F)c5)c(Cl)c4)c3C2)n1	197
O=C1COC2(CN1C1CCN(Cc3ccc(O)c(Cl)c3)C1)c1ccccc1-c1ccccc12 (stereo unspecified)	960
CN1CCC(C(=O)Nc2ccc(-c3cccc(-c4nc5cc(C(F)(F)F)ccc5[nH]4)c3)cc2)CC1	577
COc1ccc2nccc([C@H](O)CN3CCC(NCc4ccc5c(c4C)OCCO5)CC3)c2n1	886
COc1cc(NC(=O)N2CCc3ccc(OCCC4CCCN4C)cc32)cc(C(F)(F)F)c1 (stereo unspecified)	714
CC(C)CCNC(=O)C1Cc2c([nH]c3cc(Br)ccc23)C2(CCN(CCc3ccccc3)CC2)N1 (stereo unspecified)	910
COc1cc(NC(=O)c2c(-c3c(F)cccc3Cl)noc2C)c(OC)cc1Cl	861
CCOC(=O)Cc1nc(C(=O)OCC)c(N)[nH]1	647
CC[C@H](C)CNC(=O)c1cncc(-c2ccc(CN3CCC(N4CCCC4)CC3)cc2)c1	968
CCCCN(Cc1cc(Cl)c(OC)c(OC)c1)c1ccc(C(O)(C(F)(F)F)C(F)(F)F)cc1	194
COc1ccc2ncc(F)c(CCN3CC[C@@H](CNCc4cc5c(cn4)OCS5)C3)c2n1	1160
CC(C)CCN1CCC(Oc2ccc(NC(=O)c3cccs3)cc2Cl)C1 (stereo unspecified)	1100
COc1cc(NC(=O)/C=C/c2ccc(-c3ccccc3)cc2)ccc1OCCN(C(C)C)C(C)C	843
COc1ccc2nccc([C@@H](O)CN3CCC(NCc4ccc5cccc(O)c5n4)CC3)c2n1	912
C[C@H](NC(=O)c1cc(-c2ccc(C(C)(C)C)cc2)no1)C(=O)O.C[C@H](NC(=O)c1conc1-c1ccc(C(C)(C)C)cc1)C(=O)O	140
COC(=O)[C@@H](NC(=O)[C@H](CC(C)C)Nc1ccc(C#N)c2ccccc12)c1ccc(O)cc1	788
O=C(Nc1ccsc1C(=O)NC1CCCCC1)c1ccc(F)cc1	1210
COc1ccccc1N1CCN(CCCCN(C(=O)Nc2cccc(Cl)c2)C(=O)Nc2cccc(Cl)c2)CC1	707
Cc1cnc(NCCc2ccc(F)cc2)nc1NCCC(=O)Nc1ccccc1	946
CC(CCCCOCCc1ccccc1)NCC(O)c1cc(Cl)c(N)c(Cl)c1 (stereo unspecified)	788

Source: ChEMBL document CHEMBL1157539, “Thousands of chemical starting points for antimalarial lead identification” (Nature, 2010)
